Key:
[1] = molecular target: T1, human GR (Homo sapiens, UniProt P04150); experiment: Transrepression Assay (GITAR), TNFα-β-lactamase reporter in U937 cells; type: cell-based; set-up: U937 cells contain an endogenous glucocorticoid receptor (GR); endogenous in cells; host or cells: U937 cells stably transfected with the TNF-alpha promoter/beta-lactamase reporter; conditions: for GITAR > GRAMM % SEP: GITAR Emax minus GRAMMER Emax; for EC50: U937 cells, inflection point, read-out: Transrepression U937 Cells GITAR IP
T1 sequence (P04150 1-777): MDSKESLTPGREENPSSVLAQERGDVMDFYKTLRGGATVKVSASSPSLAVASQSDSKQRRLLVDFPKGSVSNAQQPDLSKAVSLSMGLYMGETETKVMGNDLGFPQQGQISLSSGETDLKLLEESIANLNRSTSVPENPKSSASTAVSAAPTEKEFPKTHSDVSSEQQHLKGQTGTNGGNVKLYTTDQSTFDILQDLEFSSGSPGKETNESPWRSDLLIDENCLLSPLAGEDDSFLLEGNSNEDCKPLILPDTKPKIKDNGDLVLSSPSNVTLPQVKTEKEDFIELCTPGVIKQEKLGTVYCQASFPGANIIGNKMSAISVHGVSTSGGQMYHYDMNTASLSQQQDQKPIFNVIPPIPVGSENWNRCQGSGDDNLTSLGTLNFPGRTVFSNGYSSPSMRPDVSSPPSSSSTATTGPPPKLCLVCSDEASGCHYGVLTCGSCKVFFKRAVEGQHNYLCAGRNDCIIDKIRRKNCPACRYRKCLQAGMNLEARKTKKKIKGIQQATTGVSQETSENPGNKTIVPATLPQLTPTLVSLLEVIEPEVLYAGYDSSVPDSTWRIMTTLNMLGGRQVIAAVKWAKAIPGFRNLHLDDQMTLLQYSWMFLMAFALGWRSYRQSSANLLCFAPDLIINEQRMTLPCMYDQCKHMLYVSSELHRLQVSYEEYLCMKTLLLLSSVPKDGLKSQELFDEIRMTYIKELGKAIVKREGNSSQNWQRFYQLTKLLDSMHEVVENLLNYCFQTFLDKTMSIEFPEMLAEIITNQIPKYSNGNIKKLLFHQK
How it was run: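 First, U937 reporter cells (TNF-α promoter–β-lactamase, native GR) received compound for 30–45 min at 37 °C. Next, PMA (5 ng/ml) and LPS (100 ng/ml) final were added for about 18 hr. Finally, CCF2-AM loading gave the read-out, with 100 nM dexamethasone as 100%.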

[2] = molecular target: T1, human GR; experiment: Trans-Activation Modulation of Glucocorticoid Receptor (GRAMMER), MMTV-LUC reporter, agonist mode; type: cell-based; set-up: endogenous in cells; conditions: for Emax: A549, A549 cells, maximum activity, read-out: Transactivation A549 Cells GRAMMER Emax; for EC50: A549 cells, inflection point, read-out: Transactivation A549 Cells GRAMMER IP
How it was run: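 Readout is luciferase from a modified MMTV LTR promoter after 24 h compound exposure alongside 10 nM dexamethasone (100% activity reference), DMSO ≤1%.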

[3] = U-937, U937 cells, maximum activity, read-out: Transrepression U937 Cells GITAR Emax
[4] = U-937, activity repressed by 100 nM dexamethasone alone set as 100%, read-out: maximal activity in the transrepression (GITAR) assay

| SMILES | GITAR > GRAMM % SEP [1] | EC50 [1] | Emax [1, 3] | Emax [1, 4] | Emax [2] | EC50 [2] |
| --- | --- | --- | --- | --- | --- | --- |
| Cc1nn(C)c(Cl)c1S(=O)(=O)N(CC1CC1)C[C@H]1CCC2=Cc3c(cnn3-c3ccc(F)cc3)C[C@@]21C [Example 7] | 19.7% | 389 nM | 56% | > 5% | 36.3% | 351 nM |
| COc1ccccc1CCN(C[C@H]1CCC2=Cc3c(cnn3-c3ccc(F)cc3)C[C@@]21C)S(=O)(=O)Cc1cccc(C(F)(F)F)c1 [Example 119, N-{[(4αR,5S)-1-(4-fluorophenyl)-4α-methyl-1,4,4α,5,6,7-hexahydrocyclopenta[f]indazol-5-yl]methyl}-N-[2-(2-methoxyphenyl)ethyl]-1-[3-(trifluoromethyl)phenyl]methanesulfonamide] | 9.3% | 605 nM | 15.9% | > 5% | 6.6% | 202 nM |
| C[C@]12Cc3cnn(-c4ccc(F)cc4)c3C=C1CC[C@@H]2CN(CCc1ccccn1)S(=O)(=O)CC(F)(F)F [Example 128, 2,2,2-trifluoro-N-{[(4αR,5S)-1-(4-fluorophenyl)-4α-methyl-1,4,4α,5,6,7-hexahydrocyclopenta[f]indazol-5-yl]methyl}-N-(2-pyridin-2-ylethyl)ethanesulfonamide] | 19.3% | 324 nM | 88.4% | > 5% | 69.1% | 252 nM |
| C[C@]12Cc3cnn(-c4ccc(F)cc4)c3C=C1CC[C@@H]2CN(CCc1ccccc1F)S(=O)(=O)Cc1ccccc1Cl [Example 107, 1-(2-chlorophenyl)-N-[2-(2-fluorophenyl)ethyl]-N-{[(4αR,5S)-1-(4-fluorophenyl)-4α-methyl-1,4,4α,5,6,7-hexahydrocyclopenta[f]indazol-5-yl]methyl}methanesulfonamide] | 11.4% | 54.1 nM | 84.4% | > 5% | 73% | 395 nM |
| C[C@]12Cc3cnn(-c4ccc(F)cc4)c3C=C1CC[C@@H]2CN(CCc1ccccc1F)S(=O)(=O)CCN1C(=O)c2ccccc2C1=O [Example 121, 2-(1,3-dioxo-1,3-dihydro-2H-isoindol-2-yl)-N-[2-(2-fluorophenyl)ethyl]-N-{[(4αR,5S)-1-(4-fluorophenyl)-4α-methyl-1,4,4α,5,6,7-hexahydrocyclopenta[f]indazol-5-yl]methyl}ethanesulfonamide] | 17.9% | 156 nM | 33.8% | > 5% | 15.9% | 242 nM |
| C[C@]12Cc3cnn(-c4ccc(F)cc4)c3C=C1CC[C@@H]2CN(CC(O)C(F)(F)F)S(=O)(=O)Cc1ccccc1C(=O)O (stereo partly drawn) [Example 164, 2-({[{[(4αR,5S)-1-(4-fluorophenyl)-4α-methyl-1,4,4α,5,6,7-hexahydrocyclopenta[f]indazol-5-yl]methyl}(3,3,3-trifluoro-2-hydroxypropyl)amino]sulfonyl}methyl)benzoic acid] | 23.0% | 1250 nM | 81.3% | > 5% | 58.3% | 1080 nM |
| CC(C)CS(=O)(=O)N(CCc1ccccc1F)C[C@H]1CCC2=Cc3c(cnn3-c3ccc(F)cc3)C[C@@]21C [Example 103, N-[2-(2-fluorophenyl)ethyl]-N-{[(4αR,5S)-1-(4-fluorophenyl)-4α-methyl-1,4,4α,5,6,7-hexahydrocyclopenta[f]indazol-5-yl]methyl}-2-methylpropane-1-sulfonamide] | 7.7% | 177 nM | 76.5% | > 5% | 68.8% | 367 nM |
| C[C@]12Cc3cnn(-c4ccccc4)c3C=C1CC[C@@H]2CN(CCc1ccccn1)S(=O)(=O)CC(F)(F)F [Example 138, 2,2,2-trifluoro-N-{[(4αR,5S)-4α-methyl-1-phenyl-1,4,4α,5,6,7-hexahydrocyclopenta[f]indazol-5-yl]methyl}-N-(2-pyridin-2-ylethyl)ethanesulfonamide] | 5.6% | 433 nM | 83.7% | > 5% | 78.1% | 203 nM |
| C[C@]12Cc3cnn(-c4ccc(F)cc4)c3C=C1CC[C@@H]2CN(CC(O)c1cccnc1)S(=O)(=O)CC(F)(F)F (stereo partly drawn) [Example 143, 2,2,2-trifluoro-N-{[(4αR,5S)-1-(4-fluorophenyl)-4α-methyl-1,4,4α,5,6,7-hexahydrocyclopenta[f]indazol-5-yl]methyl}-N-(2-hydroxy-2-pyridin-3-ylethyl)ethanesulfonamide] | 7.7% | 225 nM | 91.2% | > 5% | 83.5% | 252 nM |
| C[C@@H](CN(C[C@H]1CCC2=Cc3c(cnn3-c3ccc(F)cc3)C[C@@]21C)S(=O)(=O)CC(F)(F)F)OS(=O)(=O)CC(F)(F)F [Example 114, (1S)-2-{{[(4αR,5S)-1-(4-fluorophenyl)-4α-methyl-1,4,4α,5,6,7-hexahydrocyclopenta[f]indazol-5-yl]methyl}[(2,2,2-trifluoroethyl)sulfonyl]amino}-1-methylethyl 2,2,2-trifluoroethanesulfonate] | 18.2% | 148 nM | 98.5% | > 5% | 80.3% | 161 nM |
| Cc1noc(C)c1S(=O)(=O)N(C[C@H]1CCC2=Cc3c(cnn3-c3ccc(F)cc3)C[C@@]21C)C[C@@H](C)O [Example 168, N-{[(4αR,5S)-1-(4-fluorophenyl)-4α-methyl-1,4,4α,5,6,7-hexahydrocyclopenta[f]indazol-5-yl]methyl}-N-[(2R)-2-hydroxypropyl]-3,5-dimethylisoxazole-4-sulfonamide] | 35.0% | 119 nM | 83.1% | > 5% | 48.1% | 123 nM |
| C[C@]12Cc3cnn(-c4ccccc4)c3C=C1CC[C@@H]2CN(CCc1ccccc1O)S(=O)(=O)Cc1cccnc1 [Example 141, N-[2-(2-hydroxyphenyl)ethyl]-N-{[(4αR,5S)-4α-methyl-1-phenyl-1,4,4α,5,6,7-hexahydrocyclopenta[f]indazol-5-yl]methyl}-1-pyridin-3-ylmethanesulfonamide] | 39.7% | 400 nM | 62.2% | > 5% | 22.6% | 441 nM |
| C[C@]12Cc3cnn(-c4ccc(F)cc4)c3C=C1CC[C@@H]2CN(CC(O)c1ccncc1)S(=O)(=O)CC(F)(F)F (stereo partly drawn) [Example 144, 2,2,2-trifluoro-N-{[(4αR,5S)-1-(4-fluorophenyl)-4α-methyl-1,4,4α,5,6,7-hexahydrocyclopenta[f]indazol-5-yl]methyl}-N-(2-hydroxy-2-pyridin-4-ylethyl)ethanesulfonamide] | 18.1% | 334 nM | 91.6% | > 5% | 73.6% | 397 nM |
| CCCCCc1ccc(S(=O)(=O)N(CC2CC2)C[C@H]2CCC3=Cc4c(cnn4-c4ccc(F)cc4)C[C@@]32C)cc1 [Example 9, N-(cyclopropylmethyl)-N-{[(4αR,5S)-1-(4-fluorophenyl)-4α-methyl-1,4,4α,5,6,7-hexahydrocyclopenta[f]indazol-5-yl]methyl}-4-pentylbenzenesulfonamide] | 15.4% | 959 nM | 28.1% | > 5% | 12.7% | 1130 nM |
| CC(C1CCC2=Cc3c(cnn3-c3ccc(F)cc3)C[C@@]21C)N(CC1CC1)S(=O)(=O)CC(F)(F)F (stereo partly drawn) [Example 109, N-(cyclopropylmethyl)-2,2,2-trifluoro-N-{1-[(4αR)-1-(4-fluorophenyl)-4α-methyl-1,4,4α,5,6,7-hexahydrocyclopenta[f]indazol-5-yl]ethyl}ethanesulfonamide] | 37.0% | 190 nM | 91.1% | > 5% | 54.1% | 209 nM |

Reference: patent publication US8299048B2, “Hexahydrocyclopentyl[f]indazole sulfonamides and derivatives thereof as selective glucocorticoid receptor modulators” (Merck Sharp & Dohme Corp., priority 2008, dated 2012)
